Experimental data reported in paper PMC9118212 (ACS Omega, 2022).
“And” between values parts separate entries of the source, which are not always exact repeats. Equal values may be shown once.

Key:
HeLa (cervical cancer) = experiment: MTT cytotoxicity assay, HeLa; format: cell-based; details: Homo sapiens, 48 h, read-out: IC50 ± SD
LS-180 (colon cancer) = experiment: MTT cytotoxicity assay, LS-180; format: cell-based; details: Homo sapiens, LS180, 48 h, read-out: IC50 ± SD
plasmid DNA pCR 2.1 = experiment: Electrophoretic mobility shift assay; format: binding; details: 100 ng plasmid, 0.1 nmol compound, 2 h at 37 °C, 1% agarose gel
[1] = tested on: DNA-1 (5′-GTA AGA TGA TTC-3′ and 5′-GAA TCA TCT TAC-3′); format: binding; details: pH 7.2
[2] = tested on: ARPE-19 (retinal epithelium), nontumor; experiment: MTT cytotoxicity assay, ARPE-19; format: cell-based; details: Homo sapiens, ARPE-19, 48 h, read-out: IC50 ± SD
A-549 (lung cancer) = experiment: MTT cytotoxicity assay, A-549; format: cell-based; details: Homo sapiens, A549, 48 h, read-out: IC50 ± SD

COc1ccc2cc1Oc1ccc(cc1)C[C@H]1c3cc(c(OC)cc3CCN1C)Oc1c(OC)c(OC)cc3c1[C@H](C2)N(C)CC3 [tetrandrine, S,S-(+)-tetrandrine]
IC50 (HeLa (cervical cancer)): 16.6 µg/mL and 26.7 µM
IC50 (LS-180 (colon cancer)): 6.43 µg/mL and 10.3 µM
Effect on electrophoretic mobility of plasmid DNA (plasmid DNA pCR 2.1): reduce the mobility of the plasmid
Stern–Volmer constant (KSV) [1]: 7.34 × 10^3
IC50 [2]: 8.45 µg/mL and 13.6 µM
IC50 (A-549 (lung cancer)): 12.1 µg/mL and 19.4 µM
